From ChEMBL document CHEMBL4507268 (2021)

Key:
Conditions in all cases: Compound concentration 1.0 uM
[1] = molecular target: CDK7/Cyclin H/MNAT1 (Homo sapiens) (UniProt P51946+P50613+P51948)
[2] = molecular target: Epidermal growth factor receptor (Homo sapiens) (UniProt P00533)
[3] = molecular target: Fibroblast growth factor receptor 1 (Homo sapiens) (UniProt P11362)
[4] = molecular target: T1, Homeodomain-interacting protein kinase 4 (Homo sapiens) (UniProt Q8NE63)
T1 sequence (whole entry): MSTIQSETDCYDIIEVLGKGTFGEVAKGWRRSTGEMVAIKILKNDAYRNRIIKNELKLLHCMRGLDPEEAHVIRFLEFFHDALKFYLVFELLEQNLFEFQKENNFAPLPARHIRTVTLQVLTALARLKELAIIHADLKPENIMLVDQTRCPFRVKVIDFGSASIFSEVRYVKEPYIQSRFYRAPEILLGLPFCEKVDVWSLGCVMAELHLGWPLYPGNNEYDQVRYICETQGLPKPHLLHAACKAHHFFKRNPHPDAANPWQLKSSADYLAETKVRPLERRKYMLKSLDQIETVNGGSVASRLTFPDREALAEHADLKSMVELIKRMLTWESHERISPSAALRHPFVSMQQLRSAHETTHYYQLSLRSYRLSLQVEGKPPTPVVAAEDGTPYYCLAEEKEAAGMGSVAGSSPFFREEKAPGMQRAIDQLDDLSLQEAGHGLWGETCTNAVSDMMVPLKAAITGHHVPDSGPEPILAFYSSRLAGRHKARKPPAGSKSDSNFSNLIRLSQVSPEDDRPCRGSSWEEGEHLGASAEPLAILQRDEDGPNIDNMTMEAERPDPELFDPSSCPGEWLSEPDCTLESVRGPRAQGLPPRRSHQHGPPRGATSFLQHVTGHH

[5] = molecular target: Misshapen-like kinase 1 (Homo sapiens) (UniProt Q8N4C8)
Sequence of Misshapen-like kinase 1 (Homo sapiens) (Q8N4C8 whole entry, looked up): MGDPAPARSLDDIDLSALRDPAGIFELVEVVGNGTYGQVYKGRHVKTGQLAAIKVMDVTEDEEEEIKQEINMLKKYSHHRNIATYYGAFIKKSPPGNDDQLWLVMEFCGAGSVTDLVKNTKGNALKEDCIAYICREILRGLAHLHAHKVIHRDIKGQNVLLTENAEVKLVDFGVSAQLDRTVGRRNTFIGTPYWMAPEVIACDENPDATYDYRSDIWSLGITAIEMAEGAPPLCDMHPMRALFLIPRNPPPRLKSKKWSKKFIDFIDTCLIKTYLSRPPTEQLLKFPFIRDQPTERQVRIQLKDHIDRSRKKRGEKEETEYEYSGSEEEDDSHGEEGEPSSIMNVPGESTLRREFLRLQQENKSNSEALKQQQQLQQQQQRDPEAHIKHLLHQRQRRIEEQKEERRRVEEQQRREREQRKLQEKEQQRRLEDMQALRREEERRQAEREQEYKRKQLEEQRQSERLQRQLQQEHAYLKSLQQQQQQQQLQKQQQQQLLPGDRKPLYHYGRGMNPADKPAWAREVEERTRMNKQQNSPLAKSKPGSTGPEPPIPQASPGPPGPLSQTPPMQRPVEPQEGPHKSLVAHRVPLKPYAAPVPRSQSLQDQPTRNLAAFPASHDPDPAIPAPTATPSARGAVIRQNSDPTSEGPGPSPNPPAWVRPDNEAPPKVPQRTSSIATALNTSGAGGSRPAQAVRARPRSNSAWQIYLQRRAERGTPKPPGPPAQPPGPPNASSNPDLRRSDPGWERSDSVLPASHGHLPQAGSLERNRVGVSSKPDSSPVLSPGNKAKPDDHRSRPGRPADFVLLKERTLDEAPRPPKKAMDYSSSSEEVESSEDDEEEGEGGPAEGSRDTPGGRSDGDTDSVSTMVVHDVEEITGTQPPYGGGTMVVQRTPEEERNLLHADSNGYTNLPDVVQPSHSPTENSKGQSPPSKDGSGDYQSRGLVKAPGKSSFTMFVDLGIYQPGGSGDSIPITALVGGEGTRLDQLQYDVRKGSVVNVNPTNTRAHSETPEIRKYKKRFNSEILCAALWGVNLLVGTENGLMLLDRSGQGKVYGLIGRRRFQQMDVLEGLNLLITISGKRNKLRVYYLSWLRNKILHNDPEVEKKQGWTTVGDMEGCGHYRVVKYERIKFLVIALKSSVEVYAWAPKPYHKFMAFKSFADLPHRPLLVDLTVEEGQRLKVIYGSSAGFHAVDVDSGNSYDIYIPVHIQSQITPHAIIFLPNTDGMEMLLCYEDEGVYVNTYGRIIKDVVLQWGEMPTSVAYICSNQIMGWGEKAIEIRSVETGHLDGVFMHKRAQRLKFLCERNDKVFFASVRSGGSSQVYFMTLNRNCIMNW

[6] = molecular target: T2, Muscle, skeletal receptor tyrosine-protein kinase (Homo sapiens) (UniProt O15146)
T2 sequence (whole entry): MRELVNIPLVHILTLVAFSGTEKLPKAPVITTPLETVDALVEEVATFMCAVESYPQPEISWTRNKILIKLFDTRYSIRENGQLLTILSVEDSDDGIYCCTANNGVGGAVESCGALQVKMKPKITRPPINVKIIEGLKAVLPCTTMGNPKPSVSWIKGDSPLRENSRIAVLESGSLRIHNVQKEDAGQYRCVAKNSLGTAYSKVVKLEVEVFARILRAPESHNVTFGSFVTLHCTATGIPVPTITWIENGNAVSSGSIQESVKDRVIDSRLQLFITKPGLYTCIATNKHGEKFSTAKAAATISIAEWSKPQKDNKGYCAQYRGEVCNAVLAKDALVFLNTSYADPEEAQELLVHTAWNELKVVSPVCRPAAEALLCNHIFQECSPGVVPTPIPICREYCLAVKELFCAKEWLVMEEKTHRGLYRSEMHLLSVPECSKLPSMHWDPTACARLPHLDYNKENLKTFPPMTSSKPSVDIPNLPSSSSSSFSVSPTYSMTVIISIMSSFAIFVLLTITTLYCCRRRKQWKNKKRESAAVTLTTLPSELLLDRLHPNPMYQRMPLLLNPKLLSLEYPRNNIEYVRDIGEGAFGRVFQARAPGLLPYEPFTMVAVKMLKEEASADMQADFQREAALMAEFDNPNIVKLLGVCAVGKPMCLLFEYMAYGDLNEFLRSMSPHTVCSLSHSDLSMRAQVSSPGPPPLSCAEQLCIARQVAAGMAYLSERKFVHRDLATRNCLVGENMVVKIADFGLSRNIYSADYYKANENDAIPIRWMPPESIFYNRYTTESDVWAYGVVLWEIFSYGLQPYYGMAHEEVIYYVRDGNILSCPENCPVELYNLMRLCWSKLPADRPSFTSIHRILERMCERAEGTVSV

[7] = molecular target: T3, cGMP-dependent protein kinase 1 (Homo sapiens) (UniProt Q13976)
T3 sequence (whole entry): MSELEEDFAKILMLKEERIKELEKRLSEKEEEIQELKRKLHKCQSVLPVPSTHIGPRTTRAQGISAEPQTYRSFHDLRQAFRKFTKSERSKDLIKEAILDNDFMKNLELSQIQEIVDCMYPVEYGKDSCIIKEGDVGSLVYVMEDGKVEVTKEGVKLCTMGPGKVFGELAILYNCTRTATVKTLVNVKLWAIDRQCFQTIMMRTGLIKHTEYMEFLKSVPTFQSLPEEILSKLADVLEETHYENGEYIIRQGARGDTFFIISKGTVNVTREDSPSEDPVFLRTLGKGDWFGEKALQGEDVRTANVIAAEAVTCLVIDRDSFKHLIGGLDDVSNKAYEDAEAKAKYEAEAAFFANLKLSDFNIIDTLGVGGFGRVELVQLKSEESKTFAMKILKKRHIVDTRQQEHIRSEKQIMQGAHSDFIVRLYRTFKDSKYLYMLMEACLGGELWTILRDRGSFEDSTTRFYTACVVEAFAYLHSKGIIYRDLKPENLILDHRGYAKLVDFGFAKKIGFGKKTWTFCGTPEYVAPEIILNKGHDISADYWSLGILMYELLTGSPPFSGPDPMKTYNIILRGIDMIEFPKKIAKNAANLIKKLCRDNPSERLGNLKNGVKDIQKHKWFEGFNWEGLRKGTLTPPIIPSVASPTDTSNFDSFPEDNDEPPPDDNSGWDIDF

[8] = molecular target: Receptor-interacting serine/threonine-protein kinase 2 (Homo sapiens) (UniProt O43353)
Sequence of Receptor-interacting serine/threonine-protein kinase 2 (Homo sapiens) (O43353 whole entry): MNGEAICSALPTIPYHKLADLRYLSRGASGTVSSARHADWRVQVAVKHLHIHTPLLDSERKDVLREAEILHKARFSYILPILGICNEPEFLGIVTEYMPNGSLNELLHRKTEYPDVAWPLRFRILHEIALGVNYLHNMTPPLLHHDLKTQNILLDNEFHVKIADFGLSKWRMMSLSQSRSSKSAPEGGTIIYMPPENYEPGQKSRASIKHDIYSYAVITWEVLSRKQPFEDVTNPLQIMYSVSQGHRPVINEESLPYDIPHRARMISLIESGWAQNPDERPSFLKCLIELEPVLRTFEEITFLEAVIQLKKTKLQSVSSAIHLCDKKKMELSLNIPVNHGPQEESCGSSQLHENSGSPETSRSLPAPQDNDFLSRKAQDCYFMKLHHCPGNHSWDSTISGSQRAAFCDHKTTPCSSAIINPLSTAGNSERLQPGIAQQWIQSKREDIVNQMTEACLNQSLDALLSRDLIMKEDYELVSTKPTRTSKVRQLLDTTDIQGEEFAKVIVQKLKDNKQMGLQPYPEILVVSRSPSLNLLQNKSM

[9] = molecular target: NT-3 growth factor receptor (Homo sapiens) (UniProt Q16288)
[10] = molecular target: Tyrosine-protein kinase Yes (Homo sapiens) (UniProt P07947)
Sequence of Tyrosine-protein kinase Yes (Homo sapiens) (P07947 2-543 limits assumed): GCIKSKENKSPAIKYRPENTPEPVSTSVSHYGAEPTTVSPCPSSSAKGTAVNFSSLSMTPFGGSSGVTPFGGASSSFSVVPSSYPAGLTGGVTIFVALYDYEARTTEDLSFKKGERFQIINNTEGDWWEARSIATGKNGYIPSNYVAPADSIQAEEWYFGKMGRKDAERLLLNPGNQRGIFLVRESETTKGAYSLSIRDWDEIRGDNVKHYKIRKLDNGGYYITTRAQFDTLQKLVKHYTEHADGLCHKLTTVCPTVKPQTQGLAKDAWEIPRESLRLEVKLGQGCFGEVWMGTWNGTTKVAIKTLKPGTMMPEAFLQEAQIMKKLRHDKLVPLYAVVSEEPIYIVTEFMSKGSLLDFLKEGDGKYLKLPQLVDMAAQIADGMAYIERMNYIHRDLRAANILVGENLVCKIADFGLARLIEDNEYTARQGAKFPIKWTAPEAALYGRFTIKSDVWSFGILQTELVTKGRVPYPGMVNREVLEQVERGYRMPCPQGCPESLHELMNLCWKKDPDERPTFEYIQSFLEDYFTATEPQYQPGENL

[11] = molecular target: PI3K p110 beta/p85 alpha (Homo sapiens) (UniProt P27986+P42338)
Sequence of PI3K p110 beta/p85 alpha (Homo sapiens) (P27986 2-724 limits assumed): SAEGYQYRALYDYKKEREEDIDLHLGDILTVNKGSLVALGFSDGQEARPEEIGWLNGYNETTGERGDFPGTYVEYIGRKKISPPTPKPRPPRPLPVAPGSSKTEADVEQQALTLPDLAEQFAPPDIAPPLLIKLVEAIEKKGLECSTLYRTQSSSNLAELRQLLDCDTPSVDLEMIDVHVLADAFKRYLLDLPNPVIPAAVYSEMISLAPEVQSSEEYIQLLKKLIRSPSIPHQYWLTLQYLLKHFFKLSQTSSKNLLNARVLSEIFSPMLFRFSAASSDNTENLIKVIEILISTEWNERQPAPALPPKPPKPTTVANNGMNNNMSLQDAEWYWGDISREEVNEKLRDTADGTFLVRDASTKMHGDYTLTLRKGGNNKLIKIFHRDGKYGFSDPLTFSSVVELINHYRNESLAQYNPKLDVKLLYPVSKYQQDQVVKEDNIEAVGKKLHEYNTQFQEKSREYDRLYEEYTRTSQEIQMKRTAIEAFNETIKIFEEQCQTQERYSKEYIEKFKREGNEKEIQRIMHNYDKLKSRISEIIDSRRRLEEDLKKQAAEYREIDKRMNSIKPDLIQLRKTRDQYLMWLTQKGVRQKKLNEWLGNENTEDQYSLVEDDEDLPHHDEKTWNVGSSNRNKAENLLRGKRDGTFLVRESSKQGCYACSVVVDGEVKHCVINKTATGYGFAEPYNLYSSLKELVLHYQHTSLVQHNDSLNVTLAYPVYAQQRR
Sequence of PI3K p110 beta/p85 alpha (Homo sapiens) (P42338 whole entry partner): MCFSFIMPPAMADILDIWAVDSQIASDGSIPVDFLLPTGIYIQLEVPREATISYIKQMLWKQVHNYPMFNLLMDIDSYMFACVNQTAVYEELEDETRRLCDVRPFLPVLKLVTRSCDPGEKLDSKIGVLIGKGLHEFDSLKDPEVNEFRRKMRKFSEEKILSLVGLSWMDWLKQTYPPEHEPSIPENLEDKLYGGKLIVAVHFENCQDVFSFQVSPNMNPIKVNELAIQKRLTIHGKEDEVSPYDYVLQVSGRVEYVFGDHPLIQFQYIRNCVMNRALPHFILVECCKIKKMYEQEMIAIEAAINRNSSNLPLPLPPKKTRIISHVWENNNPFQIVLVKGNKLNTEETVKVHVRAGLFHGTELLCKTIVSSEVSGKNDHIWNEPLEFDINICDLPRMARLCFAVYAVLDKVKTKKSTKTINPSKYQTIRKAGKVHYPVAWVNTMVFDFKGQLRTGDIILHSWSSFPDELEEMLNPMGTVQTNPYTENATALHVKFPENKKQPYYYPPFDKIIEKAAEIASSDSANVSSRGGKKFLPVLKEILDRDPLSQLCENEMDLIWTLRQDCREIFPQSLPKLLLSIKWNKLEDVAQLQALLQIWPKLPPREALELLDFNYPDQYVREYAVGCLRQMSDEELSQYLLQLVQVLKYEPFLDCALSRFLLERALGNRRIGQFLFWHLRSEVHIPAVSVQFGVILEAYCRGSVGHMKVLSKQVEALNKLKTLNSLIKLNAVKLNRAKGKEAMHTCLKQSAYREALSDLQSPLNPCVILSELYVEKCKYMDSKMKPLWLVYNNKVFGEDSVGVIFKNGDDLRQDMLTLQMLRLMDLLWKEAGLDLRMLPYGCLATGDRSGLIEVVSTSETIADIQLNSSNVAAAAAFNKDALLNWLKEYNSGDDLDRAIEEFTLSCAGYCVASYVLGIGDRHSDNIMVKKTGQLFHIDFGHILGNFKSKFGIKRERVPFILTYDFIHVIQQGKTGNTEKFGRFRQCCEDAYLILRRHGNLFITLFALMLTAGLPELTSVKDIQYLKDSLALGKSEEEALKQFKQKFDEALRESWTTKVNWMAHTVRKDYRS

Measured: % residual kinase activity

Sequence of Fibroblast growth factor receptor 1 (Homo sapiens) (P11362 22-822 limits assumed): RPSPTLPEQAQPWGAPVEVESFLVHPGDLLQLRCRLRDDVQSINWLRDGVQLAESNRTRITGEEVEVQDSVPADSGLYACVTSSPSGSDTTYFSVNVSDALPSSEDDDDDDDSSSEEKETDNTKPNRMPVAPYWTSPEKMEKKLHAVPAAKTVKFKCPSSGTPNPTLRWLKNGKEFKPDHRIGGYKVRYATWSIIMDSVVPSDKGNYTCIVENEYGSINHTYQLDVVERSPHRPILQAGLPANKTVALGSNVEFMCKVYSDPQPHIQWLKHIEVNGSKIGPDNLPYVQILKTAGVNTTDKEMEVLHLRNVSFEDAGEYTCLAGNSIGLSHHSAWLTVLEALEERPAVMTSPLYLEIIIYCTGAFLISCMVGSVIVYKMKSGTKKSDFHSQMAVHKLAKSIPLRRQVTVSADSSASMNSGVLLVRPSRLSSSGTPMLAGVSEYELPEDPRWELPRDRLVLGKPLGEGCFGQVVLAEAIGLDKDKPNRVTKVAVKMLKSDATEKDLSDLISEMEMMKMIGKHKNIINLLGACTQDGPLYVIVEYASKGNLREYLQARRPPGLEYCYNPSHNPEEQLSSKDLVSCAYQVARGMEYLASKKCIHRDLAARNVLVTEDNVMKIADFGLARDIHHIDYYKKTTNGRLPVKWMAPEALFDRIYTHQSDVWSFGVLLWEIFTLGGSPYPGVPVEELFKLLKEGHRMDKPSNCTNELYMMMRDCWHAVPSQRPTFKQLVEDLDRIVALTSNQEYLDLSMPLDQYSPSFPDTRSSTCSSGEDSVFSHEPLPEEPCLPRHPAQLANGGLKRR

CN1CCN(c2cnc3c(C4CCN(C(=O)c5ccc(OC(F)(F)F)cc5N)CC4)ncnc3c2)CC1 [BAY-885]
inactive: [1] 99% | [2] 105% | [3] 101% | [4] 94% | [5] 98% | [6] 130% | [7] 122% | [8] 101% | [9] 123% | [10] 99% | [11] 98%
